Experimental data: patent US11382883B2, “Intermediate metabolism products to potentiate aminoglycoside antibiotics in bacterial infections” (TRUSTEES OF BOSTON UNIVERSITY, priority 2013, dated 2022)
Entries after “also recorded” stand apart in the source; their conditions may differ.

Key:
P. aeruginosa persisters = assay: Persister cell eradication: carbon sources plus tobramycin, survival by c.f.u. counting; format: cell-based, Pseudomonas aeruginosa; conditions: for potentiation of antibiotic efficacy / sensitization to aminoglycoside antibiotics: P. aeruginosa cells in various reduced metabolic states, in conjunction with aminoglycosides; for potentiation of tobramycin killing of persisters by carbon source (efficiency of tested metabolites): tobramycin 40 mg/l, carbon sources normalized to 60 mM carbon, M9 minimal media, ciprofloxacin-selected persisters
[1] = system: P. aeruginosa stationary phase cells; assay: Stationary phase cells eradication: carbon sources plus tobramycin, survival by c.f.u. counting; format: cell-based, Pseudomonas aeruginosa
Method: Cells from frozen stock were plated overnight at 37° C., following which a single colony forming unit (CFU) was grown in Luria-Bertani (LB) broth at 300 r.p.m. and 80% humidity to an optical density at 600 nm (OD600) of 0.3. Cells were then diluted 1:1,000 in 25 ml LB and grown for 16 h at 37° C., 300 r.p.m. and 80% humidity in 250 ml flasks. Cells were then washed (Spin 5000 rpm (Thermofisher centrifuge) for 15 mins. Samples were then washed with 20 ml of 1× filtered PBS (again spin 5000 rpm for 15 mins) and re-suspended in M9 minimal media. Carbon sources and antibiotics (tobramycin 40 mg/l) were added and samples were incubated at 37° C., 300 r.p.m. and 80% humidity At specified time points, 10-μl aliquots of cells were removed and washed with PBS, serially diluted and spot-plated onto LB agar plates to determine colony-forming units per ml (c.f.u. ml−1). The concentration of carbon sources were normalized to deliver 60 mM carbon (for example 10 mM glucose, 15 mM fumarate, 20 mM pyruvate etc.). Survivors were enumerated by plating 10 ul aliquots with serial dilutions taken from 1 ml spun down and PBS washed (remaining AB). […] Survival was determined by dividing the c.f.u. ml−1 of a sample at each time point by the initial c.f.u. ml−1 for that sample.

[2] = i.v. administration; cited from earlier work

SMILES	potentiation of antibiotic efficacy / sensitization to aminoglycoside antibiotics (P. aeruginosa persisters)	potentiation of tobramycin killing of persisters by carbon source (efficiency of tested metabolites) (P. aeruginosa persisters)	further results
O=C(O)/C=C/C(=O)O [fumarate]	very strong results	most potent	killing with incremental doses of fumarate for a given dose of tobramycin ([1]; FIG. 2, tobramycin 40 mg/L): increased killing; killing of P. aeruginosa in stationary phase by tobramycin ([1]; FIGS. 2A-2B): enables killing
CCC(=O)O [propionate]	sensitize the bacterium to aminoglycoside antibiotics	recapitulated this to some effect	–
O=C(O)CCC(=O)O [succinate]	very strong results	most potent	–
O=C(CO)[C@@H](O)[C@H](O)[C@H](O)CO [Fructose, fructose]	–	not efficient	–
NC[C@H]1O[C@H](O[C@H]2[C@H](O)[C@@H](O[C@H]3O[C@H](CO)[C@@H](O)[C@H](N)[C@H]3O)[C@H](N)C[C@@H]2N)[C@H](N)C[C@@H]1O [tobramycin, reference compound]	–	–	killing with incremental doses of tobramycin for a given fumarate ([1]; FIG. 2, administered with fumarate): increased killing; also recorded: higher killing; typical peak serum concentration [2]: 40 mg/L
OC[C@@H](O)[C@@H](O)[C@H](O)[C@H](O)CO [Mannitol, mannitol]	–	not efficient	–
O=C(O)[C@H](O)[C@@H](O)[C@H](O)[C@H](O)CO [gluconate]	–	variable levels of efficiency	–
